Test results as given in BindingDB's records for doi:10.1073/pnas.97.2.925 (Vanderbilt University School of Medicine, 2000).

Experiments:
[1] = target: T1, Prostaglandin G/H synthase 1 (Ovis aries, UniProt P05979)
T1 sequence (P05979 whole entry): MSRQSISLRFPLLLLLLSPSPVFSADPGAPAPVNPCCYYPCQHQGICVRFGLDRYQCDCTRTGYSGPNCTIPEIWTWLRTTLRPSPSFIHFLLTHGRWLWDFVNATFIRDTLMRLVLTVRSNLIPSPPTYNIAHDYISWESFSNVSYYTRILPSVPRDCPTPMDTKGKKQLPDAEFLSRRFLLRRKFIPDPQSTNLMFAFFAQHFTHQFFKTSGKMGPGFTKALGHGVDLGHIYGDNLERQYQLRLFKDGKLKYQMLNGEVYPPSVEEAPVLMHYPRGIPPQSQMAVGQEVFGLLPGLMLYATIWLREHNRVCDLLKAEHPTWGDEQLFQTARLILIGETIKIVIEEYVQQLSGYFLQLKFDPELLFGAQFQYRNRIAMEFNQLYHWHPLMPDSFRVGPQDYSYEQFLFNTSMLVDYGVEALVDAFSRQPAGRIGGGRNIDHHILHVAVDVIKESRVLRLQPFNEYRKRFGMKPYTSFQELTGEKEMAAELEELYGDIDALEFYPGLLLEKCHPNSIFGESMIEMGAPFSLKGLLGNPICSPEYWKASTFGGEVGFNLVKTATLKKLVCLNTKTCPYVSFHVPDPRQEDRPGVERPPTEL

[2] = target: T2, Prostaglandin G/H synthase 2 (Homo sapiens, UniProt P35354)
T2 sequence (P35354 whole entry): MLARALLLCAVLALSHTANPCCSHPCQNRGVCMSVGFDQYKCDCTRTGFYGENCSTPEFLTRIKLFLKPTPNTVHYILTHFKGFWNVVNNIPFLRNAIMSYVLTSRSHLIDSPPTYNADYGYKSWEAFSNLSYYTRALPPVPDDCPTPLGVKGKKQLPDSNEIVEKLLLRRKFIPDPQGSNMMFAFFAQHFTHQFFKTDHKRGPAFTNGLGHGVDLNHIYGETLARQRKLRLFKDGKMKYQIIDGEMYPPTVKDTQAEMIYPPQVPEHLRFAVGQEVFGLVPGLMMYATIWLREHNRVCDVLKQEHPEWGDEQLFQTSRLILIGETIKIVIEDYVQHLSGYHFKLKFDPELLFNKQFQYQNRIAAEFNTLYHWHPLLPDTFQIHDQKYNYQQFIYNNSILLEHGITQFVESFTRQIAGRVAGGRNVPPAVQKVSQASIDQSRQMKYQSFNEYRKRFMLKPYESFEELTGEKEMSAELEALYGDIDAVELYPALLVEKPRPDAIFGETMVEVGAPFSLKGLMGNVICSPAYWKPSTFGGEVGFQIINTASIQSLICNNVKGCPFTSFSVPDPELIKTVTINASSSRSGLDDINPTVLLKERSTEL

IC50 [1]: 300 nM
IC50 [2]: 400 nM
SMILES: Cc1ccc(Cl)c(Nc2ccccc2C(=O)NCC(=O)O)c1Cl [2-({2-[(2,6-dichloro-3-methylphenyl)amino]phenyl}formamido)acetic acid]
